Reference: US7250445B1, “Anti-oxidant suppository for treating radiation proctopathy and other anorectal disorders” (priority 2005, dated 2007)

Legend:
[1] = system: radiation proctopathy; settings: topical; cited from earlier work
[2] = system: radiation-induced anal ulceration; assay: case of patient with AIDS and anal carcinoma with radiation-induced anal ulceration, oral vitamin A; format: in vivo, human; settings: single patient
Source text: (§1) The present inventor recently described a dramatic case of the patient with AIDS and anal carcinoma with developed a large radiation-induced anal ulceration with marked debility. The patient required high dose opioid therapy for control of anal pain. […] Radiation proctopathy is a form of injury of the rectum from radiation therapy administered for pelvic cancers such as cancers of the prostate, uterus and ovary. The present inventor recently designed, conducted and published a randomized double-blinded trial comparing vitamin A in the form of retinol palmitate (10,000 IU by mouth for 90 days) to placebo in patients with radiation proctopathy. […] The other form of vitamin A, (beta carotene), when applied topically, have the potential to enhance the effectiveness of retinol palmitate for treating radiation proctopathy and other anorectal disorders.

[3] = system: wound healing; settings: following burn injury and surgeries; cited from earlier work
[4] = system: radiation proctopathy; assay: randomized double-blinded trial of vitamin A versus placebo in patients with radiation proctopathy; format: in vivo, human; settings: retinol palmitate 10,000 IU by mouth for 90 days versus placebo
Source text: as §1

Molecule	efficacy for radiation proctopathy [1]	persistence of healing and symptomatic relief ([2]; after twelve week oral course)	wound healing and symptoms ([2]; twelve week course, orally administered retinol palmitate)	wound healing [3]	rectal symptoms of radiation proctopathy [4]
Nc1ccc(O)c(C(=O)O)c1 [5-ASA, 5-aminosalicylic acid]	appear to be ineffective	–	–	–	–
CCCCCCCCCCCCCCCC(=O)OC/C=C(C)/C=C/C=C(C)/C=C/C1=C(C)CCCC1(C)C [vitamin A, retinol palmitate]	–	persisted for more than six months	complete wound healing and symptomatic relief	accelerate wound healing	significantly reduced rectal symptoms
sucralfate	appear to be ineffective	–	–	–	–
